Measurements as given in BindingDB's records for doi:10.1124/mol.53.2.195 (Suntory Institute For Bioorganic Research, 1998).

Experiments:
[1] = molecular target: Glutamate receptor ionotropic, kainate 1 (Rattus norvegicus, UniProt P22756)
[2] = molecular target: Glutamate receptor 3 (Rattus norvegicus, UniProt P19492)
[3] = molecular target: Glutamate receptor ionotropic, NMDA 1 (Rattus norvegicus, UniProt P35439)

Glutamate receptor 3, sequence (P19492 whole entry): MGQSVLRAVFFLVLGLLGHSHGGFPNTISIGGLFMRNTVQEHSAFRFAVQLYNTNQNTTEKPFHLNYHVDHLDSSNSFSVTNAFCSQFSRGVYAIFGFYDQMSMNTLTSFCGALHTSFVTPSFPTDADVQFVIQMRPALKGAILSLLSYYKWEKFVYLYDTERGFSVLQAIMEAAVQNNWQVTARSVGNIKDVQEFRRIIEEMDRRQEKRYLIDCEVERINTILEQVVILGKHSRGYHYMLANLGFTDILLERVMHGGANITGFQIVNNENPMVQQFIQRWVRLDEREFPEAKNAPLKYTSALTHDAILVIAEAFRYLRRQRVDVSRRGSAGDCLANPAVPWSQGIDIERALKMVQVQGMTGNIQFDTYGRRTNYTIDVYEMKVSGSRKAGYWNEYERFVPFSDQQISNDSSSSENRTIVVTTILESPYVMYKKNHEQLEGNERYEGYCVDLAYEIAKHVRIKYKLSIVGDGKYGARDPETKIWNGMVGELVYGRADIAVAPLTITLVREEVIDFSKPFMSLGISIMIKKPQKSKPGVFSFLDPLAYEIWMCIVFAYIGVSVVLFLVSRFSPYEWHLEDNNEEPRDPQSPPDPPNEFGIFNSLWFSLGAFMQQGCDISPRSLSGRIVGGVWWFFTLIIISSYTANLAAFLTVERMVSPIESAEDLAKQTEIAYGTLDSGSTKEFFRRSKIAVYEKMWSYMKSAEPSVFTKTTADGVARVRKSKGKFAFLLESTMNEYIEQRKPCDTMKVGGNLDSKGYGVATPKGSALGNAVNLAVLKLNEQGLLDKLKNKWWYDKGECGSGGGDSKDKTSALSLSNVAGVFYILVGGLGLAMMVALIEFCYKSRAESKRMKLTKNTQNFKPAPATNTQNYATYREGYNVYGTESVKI
Glutamate receptor ionotropic, kainate 1, sequence (P22756 whole entry): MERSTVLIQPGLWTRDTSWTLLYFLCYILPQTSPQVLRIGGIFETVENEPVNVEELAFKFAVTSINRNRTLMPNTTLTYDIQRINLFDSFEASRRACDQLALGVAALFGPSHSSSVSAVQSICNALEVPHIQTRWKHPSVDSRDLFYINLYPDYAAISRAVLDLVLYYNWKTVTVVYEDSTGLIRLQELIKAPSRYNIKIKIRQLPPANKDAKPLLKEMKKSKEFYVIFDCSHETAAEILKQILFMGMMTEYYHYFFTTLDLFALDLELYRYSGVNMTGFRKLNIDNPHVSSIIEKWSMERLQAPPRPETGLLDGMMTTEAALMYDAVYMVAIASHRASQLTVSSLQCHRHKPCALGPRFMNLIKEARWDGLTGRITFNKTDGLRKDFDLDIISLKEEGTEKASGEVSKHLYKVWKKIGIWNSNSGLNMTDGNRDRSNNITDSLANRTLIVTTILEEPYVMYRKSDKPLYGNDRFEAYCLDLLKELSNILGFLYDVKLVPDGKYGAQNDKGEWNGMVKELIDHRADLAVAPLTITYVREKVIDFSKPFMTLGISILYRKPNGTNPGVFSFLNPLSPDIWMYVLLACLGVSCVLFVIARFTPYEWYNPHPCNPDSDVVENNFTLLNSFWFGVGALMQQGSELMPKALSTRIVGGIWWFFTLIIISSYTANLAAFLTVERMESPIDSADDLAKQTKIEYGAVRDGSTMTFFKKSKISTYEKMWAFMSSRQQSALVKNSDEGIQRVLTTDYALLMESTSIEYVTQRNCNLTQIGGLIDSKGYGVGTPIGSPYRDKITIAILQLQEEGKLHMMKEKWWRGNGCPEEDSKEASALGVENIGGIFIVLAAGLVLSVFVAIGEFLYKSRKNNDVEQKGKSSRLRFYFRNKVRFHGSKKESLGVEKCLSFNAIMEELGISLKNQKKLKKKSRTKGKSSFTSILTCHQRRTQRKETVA

With `N[C@H](C(=O)O)[C@H](OC(=O)c1ccccc1)C(=O)O` (racemic) [DL-TBzOAsp] the Ki [1] was over 10 µM, the Ki [2] was over 10 µM and the Ki [3] was over 10 µM.
In the case of `N[C@H](C(=O)O)[C@H](O)C(=O)O` (racemic) [DL-THA], the Ki [1] is reported as over 10 µM, the Ki [2] is reported as over 10 µM and the Ki [3] is reported as over 10 µM.
In the case of `N[C@H](C(=O)O)[C@H](OCc1ccccc1)C(=O)O` [DL-TBOA], the Ki [1] is reported as over 10 µM, the Ki [2] is reported as over 10 µM and the Ki [3] is reported as over 10 µM.
Work on `N[C@H](C(=O)O)[C@H]1C[C@H]1C(=O)O` [L-CCG-IV] yielded a Ki [3] of 0.008 µM.
`CN[C@H](CC(=O)O)C(=O)O` [NMDA] was tested, and the Ki [3] was 5.5 µM.
Molecule `CC(C)[C@H]1CN[C@H](C(=O)O)[C@H]1CC(=O)O` [dihydrokainic acid] has a Ki [1] of 6 µM, a Ki [2] of over 10 µM and a Ki [3] of over 10 µM.
`O=C(O)[C@H]1CN[C@H](C(=O)O)C1` [t-PDC] showed a Ki [1] of over 10 µM, a Ki [2] of over 10 µM and a Ki [3] of over 10 µM.
